{"source": "paper PMC11568388", "about": "(Molecular Biology and Evolution, 2024)", "tested_on": "Aplysia californica", "type": "in vivo"}
{"smiles": "NCC(O)c1ccc(O)cc1", "note": "(stereo not shown) [octopamine]", "values": [{"measurement": "Behavior vs saline-injected control", "setting": "in vivo", "value": "did not alter A. californica behavior significantly different from control"}]}
{"smiles": "NCCc1c[nH]c2ccc(O)cc12", "note": "[serotonin]", "values": [{"measurement": "Behavioral phenotype", "setting": "in vivo", "value": "notable inability of the animal's foot to completely stick to the tank wall, resulting in impaired locomotion"}, {"measurement": "Onset of behavioral phenotype after injection", "setting": "in vivo", "value": "≤ 1", "unit": "min"}, {"measurement": "Locomotion", "setting": "n = 3", "value": "immediate hyperlocomotive phenotype"}]}
